Experimental data: ChEMBL document CHEMBL4483862, “Open-source discovery of chemical leads for next-generation chemoprotective antimalarials” (2018)

Test system: Plasmodium berghei
Assay: Luciferase/luciferin-expressing antifolate-resistant parasites were used to infect a culture of HepG2 cells that were pre-incubated with compounds. Infected hepatocytes emit light due to the luciferase reaction. Assay results are presented as the percent inhibition of light emission compared to control. […]
Assay type: functional
Settings: sporozoite; for IC90: read-out: LUCIFERASE INFECTION ASSAY - IC90
[1] = read-out: LUCIFERASE INFECTION ASSAY - IC50

Structure (SMILES)	IC90 [µM]	IC50 [1] [µM]	also measured
O=S(=O)(c1ccc(-c2cc(-c3ccccc3Cl)c3cc(Cl)ccc3n2)cc1)N1CCCCC1	> 10		IC50 (FFLUC_HILL_SLOPE 79.3, FFLUC_R_SQUARED 0.555, read-out: LUCIFERASE INFECTION ASSAY - IC50): > 10 µM
CC1CCC2(CC1)NC(=O)N(Cc1ccc(C(=O)Nc3ccccc3)cc1)C2=O (configuration not stated)	> 10		IC50 (HEPG2TOX_HILL_SLOPE 0.925, HEPG2TOX_R_SQUARED 0.33, PBLUC_HILL_SLOPE 1.44, PBLUC_R_SQUARED 0.482, read-out: LUCIFERASE INFECTION ASSAY - IC50): 2.56 µM
Oc1ccc(/C=N/n2c(-c3ccco3)cs/c2=N\c2ccc(F)cc2F)c(O)c1	> 10		IC50 (PBLUC_HILL_SLOPE 8.45, PBLUC_R_SQUARED 0.234, read-out: LUCIFERASE INFECTION ASSAY - IC50): 8.99 µM
CC(C)c1ccc(NC(=O)N2[C@@H]3CC[C@@H](C3)[C@H]2c2nc3c(OCC4CC4)cccc3[nH]2)cc1	> 10		IC50 (PBLUC_HILL_SLOPE 2.47, PBLUC_R_SQUARED 0.452, read-out: LUCIFERASE INFECTION ASSAY - IC50): 6.2 µM
O=C(CSc1cccc[n+]1[O-])Nc1ccccc1OC(F)F	> 10	> 10	
CNc1snc(C)c1C(=O)OCc1cc(C(=O)OC)c(C)o1	2.41		IC50 (HEPG2TOX_HILL_SLOPE 0.962, HEPG2TOX_R_SQUARED 0.934, PBLUC_HILL_SLOPE 25, PBLUC_R_SQUARED 0.565, read-out: LUCIFERASE INFECTION ASSAY - IC50): 2.2 µM
O=C(Nc1ccccc1)C1=C(N2CCOCC2)/C(=C/c2ccc(Br)cc2)CC1	> 10	> 10	
CSC1=C(C#N)C(=O)NC(c2c(Cl)cccc2Cl)S1 (configuration not stated)	> 9.96		IC50 (FFLUC_HILL_SLOPE 9.34, FFLUC_R_SQUARED 0.0497, read-out: LUCIFERASE INFECTION ASSAY - IC50): > 9.96 µM
Cc1cc(/C=C(\C#N)c2nnc(N3CCOCC3)n2-c2ccccc2)c(C)n1-c1cccc(C(F)(F)F)c1	> 10		IC50 (HEPG2TOX_HILL_SLOPE 0.204, HEPG2TOX_R_SQUARED 0.0193, PBLUC_HILL_SLOPE 1.7, PBLUC_R_SQUARED 0.432, read-out: LUCIFERASE INFECTION ASSAY - IC50): > 10 µM
CC(OC(=O)C1CC1)C(=O)Nc1ccnn1C(C)C (configuration not stated)	> 10	> 10	
CCN1C(=O)N(C2Cc3ccccc3C2)C(=O)C12CCN(Cc1cc3ccccc3[nH]1)CC2	> 7.46		IC50 (HEPG2TOX_HILL_SLOPE 3.47, HEPG2TOX_R_SQUARED 0.984, PBLUC_HILL_SLOPE 2.65, PBLUC_R_SQUARED 0.483, read-out: LUCIFERASE INFECTION ASSAY - IC50): 3.77 µM
CC(=O)Nc1cccc(-c2cn3c(-c4ccc5c(ccn5C)c4)cnc3cn2)c1	7.79		IC50 (HEPG2TOX_HILL_SLOPE 2.25, HEPG2TOX_R_SQUARED 0.952, PBLUC_HILL_SLOPE 1.38, PBLUC_R_SQUARED 0.642, read-out: LUCIFERASE INFECTION ASSAY - IC50): 1.59 µM
CN(C)C(CNC(=O)c1ccc(NC(=O)OC(C)(C)C)cc1)c1cccs1 (configuration not stated)	> 10	> 10	
CN1C/C(=C\c2ccccc2Cl)C(=O)/C(=C/c2ccccc2Cl)C1	3.58		IC50 (HEPG2TOX_HILL_SLOPE 12.3, HEPG2TOX_R_SQUARED 0.936, PBLUC_HILL_SLOPE 378, PBLUC_R_SQUARED 0.452, read-out: LUCIFERASE INFECTION ASSAY - IC50): 3.56 µM
N#CC(C#N)C=Nc1cc(C(F)(F)F)ccc1N1CCCC1	> 10.8	> 10.8	
CC(=O)c1c(C)[nH]c(C(=O)COC(=O)c2cnn(-c3ccccc3)c2)c1C	> 10	> 10	
COc1cccc(CC(=O)N2CCCC(C(=O)NCC3CC3)C2)c1 (configuration not stated)	> 10	> 10	
O=[N+]([O-])c1ccc2nc3c(c(-c4ccccc4)c2c1)CSc1ccccc1-3	> 10	> 10	
CC(C)(c1ccc(O)cc1)c1ccc(Cl)cc1	> 10	> 10	
O=[N+]([O-])c1cc(-c2nc(-c3cc(C(F)(F)F)cc(C(F)(F)F)c3)no2)cs1	> 8.06		IC50 (HEPG2TOX_HILL_SLOPE 11.5, HEPG2TOX_R_SQUARED 0.674, read-out: LUCIFERASE INFECTION ASSAY - IC50): > 8.06 µM
COc1ccc(/C=N/OCC(=O)Nc2ccccc2C(F)(F)F)cc1	> 10		IC50 (PBLUC_HILL_SLOPE 0.525, PBLUC_R_SQUARED 0.458, read-out: LUCIFERASE INFECTION ASSAY - IC50): > 10 µM
OC(COc1ccccc1F)CN1CCN(Cc2csc3ccccc23)CC1 (configuration not stated)	> 10		IC50 (PBLUC_HILL_SLOPE 13.5, PBLUC_R_SQUARED 0.264, read-out: LUCIFERASE INFECTION ASSAY - IC50): > 10 µM
CC(Sc1nc2ncccn2n1)C(=O)N1c2ccccc2CC1C (configuration not stated)	> 10		IC50 (FFLUC_HILL_SLOPE 10.4, FFLUC_R_SQUARED 0.228, read-out: LUCIFERASE INFECTION ASSAY - IC50): > 10 µM

Structure (SMILES)	IC90 [µM]	IC50 [1] [µM]	also measured
O=C(Nc1cccc(-c2nc(-c3cccc(F)c3)cs2)c1)C1CC1	> 10		IC50 (PBLUC_HILL_SLOPE 2.07, PBLUC_R_SQUARED 0.228, read-out: LUCIFERASE INFECTION ASSAY - IC50): 5.44 µM
OC1CCC(Nc2nn3c(-c4ccc5ccccc5c4)cnc3s2)CC1 (configuration not stated)	> 9.05	> 9.05	
Cc1cc(C)cc(OCC(O)CNC(C)CCC(C)C)c1 (configuration not stated)	> 10	> 10	
O=C(CSc1nnc(Nc2ccc(Oc3ccccc3)cc2)s1)c1cccs1	4.38		IC50 (FFLUC_HILL_SLOPE 2.69, FFLUC_R_SQUARED 0.808, PBLUC_HILL_SLOPE 3.49, PBLUC_R_SQUARED 0.557, read-out: LUCIFERASE INFECTION ASSAY - IC50): 2.33 µM
Clc1ccc2c(N(Cc3ccco3)Cc3cccs3)ncnc2c1	> 10	> 10	
C/C(=N\c1cc(C(F)(F)F)ccc1Cl)Nc1ccc(C)cc1	> 10	> 10	
CC(C)(C)c1nnc2sc(SCC(=O)NC(c3ccccc3)c3ccccc3)nn2c1=O	> 10		IC50 (FFLUC_HILL_SLOPE 10.4, FFLUC_R_SQUARED 0.278, PBLUC_HILL_SLOPE 1.88, PBLUC_R_SQUARED 0.683, read-out: LUCIFERASE INFECTION ASSAY - IC50): 4.26 µM
CC(C)OCCCNCC(O)COCc1ccccc1Cl (configuration not stated)	> 10	> 10	
CCOc1cc2cc(C(=O)c3cc(C)ccc3O)cnc2cc1OC	9.38		IC50 (HEPG2TOX_HILL_SLOPE 3.65, HEPG2TOX_R_SQUARED 0.956, PBLUC_HILL_SLOPE 5.3, PBLUC_R_SQUARED 0.515, read-out: LUCIFERASE INFECTION ASSAY - IC50): 6.19 µM
COc1cc2ccccc2cc1C(=O)OC(C(=O)Nc1ccc(C)c(Cl)c1)c1ccccc1 (configuration not stated)	> 10		IC50 (FFLUC_HILL_SLOPE 12, FFLUC_R_SQUARED 0.255, PBLUC_HILL_SLOPE 12.6, PBLUC_R_SQUARED 0.137, read-out: LUCIFERASE INFECTION ASSAY - IC50): > 10 µM
CC(=O)Nc1ccc(-c2ccc3ncc(-c4ccc(CO)cc4)n3n2)cc1	> 10		IC50 (HEPG2TOX_HILL_SLOPE 0.612, HEPG2TOX_R_SQUARED 0.859, PBLUC_HILL_SLOPE 1.16, PBLUC_R_SQUARED 0.655, read-out: LUCIFERASE INFECTION ASSAY - IC50): 1.9 µM
CN(CCCNC(=O)CSc1nnc(-c2c[nH]c3ccccc23)n1C1CC1)c1ccccc1	9.32		IC50 (HEPG2TOX_HILL_SLOPE 3.48, HEPG2TOX_R_SQUARED 0.658, PBLUC_HILL_SLOPE 4.72, PBLUC_R_SQUARED 0.65, read-out: LUCIFERASE INFECTION ASSAY - IC50): 5.85 µM
COc1ccccc1-c1cc(-c2cccc(OC(F)(F)F)c2)cnc1N	> 9.16	> 9.16	
CCOc1ccccc1C(=O)NCCc1cccc(Cl)c1	> 10.9	> 10.9	
CCOc1cc2c(cc1/C=C/C(=O)c1ccc(C)o1)OC(C)C2 (configuration not stated)	> 10		IC50 (PBLUC_HILL_SLOPE 2.56, PBLUC_R_SQUARED 0.238, read-out: LUCIFERASE INFECTION ASSAY - IC50): 9.29 µM
FC(F)(F)c1ccc(/C=N/Nc2ccc(C(F)(F)F)cc2)cc1	> 9.93		IC50 (PBLUC_HILL_SLOPE 3.36, PBLUC_R_SQUARED 0.386, read-out: LUCIFERASE INFECTION ASSAY - IC50): 5.72 µM
CN(Cc1ccc(C(=O)NC2CC2)cc1)S(=O)(=O)c1ccc(Br)s1	9.55		IC50 (PBLUC_HILL_SLOPE 16.6, PBLUC_R_SQUARED 0.228, read-out: LUCIFERASE INFECTION ASSAY - IC50): 8.37 µM
CCOc1ccccc1NC(=O)Cc1nc2nc(C)cc(C)n2n1	> 10.1	> 10.1	
CC(=O)Nc1ccc(/C=C2\S/C(=N\c3cccc4ccccc34)N(Cc3ccccc3F)C2=O)cc1	> 10	6.52	
CCC(C)NC(=O)c1c(NC(=O)c2ccccc2)nc2ccc(C)cn12 (configuration not stated)	> 9.42		IC50 (PBLUC_HILL_SLOPE 13.5, PBLUC_R_SQUARED 0.225, read-out: LUCIFERASE INFECTION ASSAY - IC50): 8.13 µM
CC1CCN(Cc2ccc(CNC(=O)CCn3cncn3)cc2)CC1	> 10	> 10	
CCc1ccc(-n2c(SC3CCCCC3NS(=O)(=O)c3ccccc3)nc3ccccc3c2=O)cc1 (configuration not stated)	4.14		IC50 (PBLUC_HILL_SLOPE 16.5, PBLUC_R_SQUARED 0.215, read-out: LUCIFERASE INFECTION ASSAY - IC50): 3.63 µM
CC(OC(=O)c1c(NC(=O)C2CCCCC2)sc2c1CCC2)C(=O)Nc1[nH]cnc2ncnc1-2 (configuration not stated)	> 10		IC50 (HEPG2TOX_HILL_SLOPE 8.29, HEPG2TOX_R_SQUARED 0.38, read-out: LUCIFERASE INFECTION ASSAY - IC50): > 10 µM
